Measured values from article PMC6906261 (The journal of pain : official journal of the American Pain …, 2019).
Structures can show the parent of a compound that is named as a salt.

What was measured:
CD-1 mice [1] = details: mouse, in vivo
CD-1 mice [2] = details: mouse, in vivo; remark: listed apart in the source
TNFα mRNA = details: mouse, in vivo
CD-1 mice [3] = details: mouse, in vivo; remark: listed apart in the source
CD-1 mice [4] = details: mouse, in vivo; remark: listed apart in the source
CD-1 mice [5] = details: mouse, in vivo; remark: listed apart in the source
CD-1 mice [6] = details: general literature value; cited from earlier work

SMILES: Oc1ccc2c3c1O[C@H]1c4[nH]c5ccccc5c4C[C@@]4(O)[C@@H](C2)N(CC2CC2)CC[C@]314 [Naltrindole]
- Effect of antagonist on SRI-22141 tail flick anti-nociception, naltrindole ip (CD-1 mice [1]): no impact
- Effect of antagonist on SRI-22141 anti-nociception in CIPN (CD-1 mice [2]): strongly reduced
- Effect of antagonist on TNFα mRNA decrease caused by SRI-22141 (TNFα mRNA): reversed the decrease in TNFα caused by SRI-22141 back to baseline

SMILES: C=CCN1CC[C@]23c4c5ccc(O)c4O[C@H]2C(=O)CC[C@@]3(O)[C@H]1C5 [Naloxone]
- Decrease of tail flick AUC vs vehicle group, naloxone it (CD-1 mice [1]): 4.6%
- Effect of antagonist on SRI-22141 tail flick anti-nociception, naloxone icv (CD-1 mice [1]): strongly reduced
- Effect of antagonist on SRI-22141 tail flick anti-nociception, naloxone ip (CD-1 mice [1]): completely prevented

SMILES: CN1CC[C@]23c4c5ccc(O)c4O[C@H]2[C@@H](O)C=C[C@H]3[C@H]1C5 [Morphine, Morphine sulfate pentahydrate]
- Anti-nociceptive efficacy on day 3, HIV Neuropathy (CD-1 mice [3]): zero efficacy
- Tolerance – Days to Zero Efficacy, HIV Neuropathy, 10 mg/kg (CD-1 mice [3]): 3.0 (2.7-3.6) days
- Tolerance – Days to Zero Efficacy, CIPN, 10 mg/kg (CD-1 mice [2]): 2.2 (1.9-3.3) days
- TNFα mRNA level in spinal cord in CIPN (TNFα mRNA): did not alter
- Rotarod motor impairment (latency to fall) (CD-1 mice [4]): no impairment
- Withdrawal GI output, CIPN mice (CD-1 mice [5]): robust jumping and GI output response
- Withdrawal GI output, pain-naïve mice (CD-1 mice [5]): robust jumping and GI output behavior
- Withdrawal jumping behavior, CIPN mice (CD-1 mice [5]): robust jumping and GI output response
- Withdrawal jumping behavior, pain-naïve mice (CD-1 mice [5]): robust jumping and GI output behavior
- Tail flick A50 from the literature (CD-1 mice [6]): around 3.2 mg/kg
